The text below walks through data of patent publication US20250064947A1, “CYTOTOXICITY TARGETING CHIMERAS FOR FIBROBLAST ACTIVATION PROTEIN-EXPRESSING CELLS” (Glaxosmithkline Intellectual Property Development Limited, priority 2022, published 2025).

Structures are written as SMILES.

The target in the first assay is T1, FAP (Homo sapiens, UniProt Q12884).
T1 construct: Target cells: WI-38 cells (typically 1000-20,000 cells per well); endogenous in cells; host or cells: WI-38 cells
T1 sequence (Q12884 1-760): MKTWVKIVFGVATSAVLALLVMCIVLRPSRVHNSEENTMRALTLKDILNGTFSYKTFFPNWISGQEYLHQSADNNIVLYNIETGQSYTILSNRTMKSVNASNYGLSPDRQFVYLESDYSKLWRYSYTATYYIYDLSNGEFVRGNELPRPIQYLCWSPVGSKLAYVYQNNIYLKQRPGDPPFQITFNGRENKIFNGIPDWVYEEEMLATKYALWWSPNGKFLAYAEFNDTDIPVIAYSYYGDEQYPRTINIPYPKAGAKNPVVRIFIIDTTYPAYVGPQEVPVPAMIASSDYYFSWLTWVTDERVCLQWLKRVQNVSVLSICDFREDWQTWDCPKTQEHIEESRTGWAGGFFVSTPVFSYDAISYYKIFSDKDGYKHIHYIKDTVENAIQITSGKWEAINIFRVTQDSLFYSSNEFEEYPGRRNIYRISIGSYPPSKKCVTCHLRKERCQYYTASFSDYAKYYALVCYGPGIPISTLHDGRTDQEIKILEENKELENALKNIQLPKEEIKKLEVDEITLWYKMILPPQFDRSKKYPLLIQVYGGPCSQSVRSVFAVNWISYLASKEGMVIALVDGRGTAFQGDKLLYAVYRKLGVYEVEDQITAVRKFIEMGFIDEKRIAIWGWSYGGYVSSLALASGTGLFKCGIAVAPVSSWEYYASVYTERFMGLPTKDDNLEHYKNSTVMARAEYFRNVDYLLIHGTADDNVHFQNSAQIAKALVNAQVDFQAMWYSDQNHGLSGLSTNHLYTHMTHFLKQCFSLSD
Briefly: Antibody dependent cellular cytotoxicity (ADCC) reporter assay. It counts as cell-based. Also noted: key to ADCC Reporter Assay pEC50: Inactive = pEC50 < 5. To be noted: WI-38 target cells; Jurkat FcγRIIIa NFAT-luciferase reporter cells; with anti-cotinine antibody (SEQ ID NO: 11/12); 12-18 hours; average if more than one run. The method, then:
An antibody dependent cellular cytotoxicity (ADCC) reporter assay was conducted using the following four assay components: (i) ARM compound of Formula (I) targeting FAP (concentrations ranging from […]); (ii) anti-cotinine antibody having a heavy chain sequence of SEQ ID NO: 11 and a light chain sequence of SEQ ID NO: 12 (rabbit variable region with human IgG1 Fc domain containing DE mutation (S239D/I332E)) (concentrations ranging from 0.01 μg/mL 200 μg/mL); (iii) Target cells: WI-38 cells (typically 1000-20,000 cells per well); and (iv) Reporter cells—Jurkat cells engineered to express FcγRIIIa with a reporter gene luciferase under the control of the NFAT promoter (typically 3000-75,000 cells per well). Reagents were combined in final volume of 20 μL in 384—well tissue culture treated plate. All four assay components were incubated together for about 12-18 hours. Thereafter, BioGlo Detection reagent (Promega) was added to the wells to lyse the cells and provide a substrate for the luciferase reporter protein.
Luminescence signal was measured on a microplate reader capable of measuring luminescence and signal:background was calculated by dividing the signal of a test well by the signal obtained when no compound of formula (I) was included in the assay. EC50 calculations were done using Graphpad Prism Software, specifically a nonlinear regression curve fit (Y=Bottom+(Top−Bottom)/(1+10^((Log EC50−X)*HillSlope))).
ARMs compounds of Formula (I) were tested for ADCC activity in the above assay in one or more experimental runs and the results are shown in Table 3 below. Potency of the compounds of Formula (I) is reported as a pEC50 values. The pEC50 value is the negative log of the EC50 value, wherein the EC50 value is half maximal effective concentration measured in molar (M). For compounds tested in more than one experimental run, the pEC50 value is reported as an average.
(In general: In a reporter assay the amount or activity of a reporter protein is the signal.)
As for `CN(CCNC(=O)[C@H]1CC[C@H](NC(=O)[C@H]2CC[C@H](NC(=O)CCCO[C@H]3CC[C@H](OCCNC(=O)[C@H]4CC(=O)N(C)[C@@H]4c4cccnc4)CC3)CC2)CC1)c1ccc2nccc(C(=O)NCC(=O)N3CC(F)(F)C[C@H]3C#N)c2c1` [Example 2, N-(2-((S)-2-cyano-4,4-difluoropyrrolidin-1-yl)-2-oxoethyl)-6-(methyl(2-((1R,4r)-((1R,4R)-4-(4-(((1S,4R)-4-(2-((2S,3S)-1-methyl-5-oxo-2-(pyridin-3-yl)pyrrolidine-3-carboxamido)ethoxy)cyclohexyl)oxy)butanamido)cyclohexane-1-carboxamido)cyclohexane-1-carboxamido)ethyl)amino)quinoline-4-carboxamide], the “ADCC Reporter Assay pEC50” value is recorded as “Inactive^1”.
Same read-out and setting: next, `CN(CCNC(=O)CCCO[C@H]1CC[C@H](OCCNC(=O)[C@H]2CC[C@H](NC(=O)CCCO[C@H]3CC[C@H](OCCNC(=O)[C@H]4CC(=O)N(C)[C@@H]4c4cccnc4)CC3)CC2)CC1)c1ccc2nccc(C(=O)NCC(=O)N3CC(F)(F)C[C@H]3C#N)c2c1` [Example 3, N-(2-((S)-2-cyano-4,4-difluoropyrrolidin-1-yl)-2-oxoethyl)-6-(methyl(2-(4-(((1R,4r)-4-(2-((1R,4R)-4-(4-(((1S,4R)-4-(2-((2S,3S)-1-methyl-5-oxo-2-(pyridin-3-yl)pyrrolidine-3-carboxamido)ethoxy)cyclohexyl)oxy)butanamido)cyclohexane-1-carboxamido)ethoxy)cyclohexyl)oxy)butanamido)ethyl)amino)quinoline-4-carboxamide]: “Inactive”; `CN(CCNC(=O)[C@H]1CC[C@H](NC(=O)CCCO[C@H]2CC[C@H](OCCNC(=O)[C@H]3CC(=O)N(C)[C@@H]3c3cccnc3)CC2)CC1)c1ccc2nccc(C(=O)NCC(=O)N3CC(F)(F)C[C@H]3C#N)c2c1` [Example 4, N-(2-((S)-2-cyano-4,4-difluoropyrrolidin-1-yl)-2-oxoethyl)-6-(methyl(2-((1R,4r)-4-(4-(((1S,4R)-4-(2-((2S,3S)-1-methyl-5-oxo-2-(pyridin-3-yl)pyrrolidine-3-carboxamido)ethoxy)cyclohexyl)oxy)butanamido)cyclohexane-1-carboxamido)ethyl)amino)quinoline-4-carboxamide]: “Inactive”.
Same read-out and setting: as for `CN(CCNC(=O)CCOCCOCCOCCOCCOCCOCCOCCOCCOCCOCCOCCOCCNC(=O)[C@H]1CC(=O)N(C)[C@@H]1c1cccnc1)c1ccc2nccc(C(=O)NCC(=O)N3CC(F)(F)C[C@H]3C#N)c2c1` [Example 5, N-(2-((S)-2-cyano-4,4-difluoropyrrolidin-1-yl)-2-oxoethyl)-6-(methyl(1-((2S,3S)-1-methyl-5-oxo-2-(pyridin-3-yl)pyrrolidin-3-yl)-1,41-dioxo-5,8,11,14,17,20,23,26,29,32,35,38-dodecaoxa-2,42-diazatetratetracontan-44-yl)amino)quinoline-4-carboxamide], the entry is “Inactive”.

Staying with this assay, now noted: WI-38 target cells; Jurkat FcγRIIIa NFAT-luciferase reporter cells; with anti-cotinine antibody (SEQ ID NO: 11/12); 12-18 hours; average if more than one run; read-out: ADCC Reporter Assay pEC50 (converted).
`CN(CCNC(=O)[C@H]1CC[C@H](NC(=O)CCCO[C@H]2CC[C@H](OCCNC(=O)[C@H]3CC[C@H](NC(=O)CCCO[C@H]4CC[C@H](OCCNC(=O)[C@H]5CC(=O)N(C)[C@@H]5c5cccnc5)CC4)CC3)CC2)CC1)c1ccc2nccc(C(=O)NCC(=O)N3CC(F)(F)C[C@@H]3C#N)c2c1` (racemic) [Example 1, N-(2-((S)-2-Cyano-4,4-difluoropyrrolidin-1-yl)-2-oxoethyl)-6-(methyl(2-((1R,4R)-4-(4-(((1R,4R)-4-(2-((1R,4R)-4-(4-(((1 S,4R)-4-(2-((2S,3S)-1-methyl-5-oxo-2-(pyridin-3-yl)pyrrolidine-3-carboxamido)ethoxy)cyclohexyl)oxy)butanamido)cyclohexane-1-carboxamido)ethoxy)cyclohexyl)oxy)butanamido)cyclohexane-1-carboxamido)ethyl)amino) quinoline-4-carboxamide]: the EC50 was 3.98 nM.
Consider `CN(CCNC(=O)CCOCCOCCOCCOCCOCCOCCOCCOCCOCCOCCOCCOCCOCCOCCOCCOCCOCCOCCOCCOCCNC(=O)[C@H]1CC(=O)N(C)[C@@H]1c1cccnc1)c1ccc2nccc(C(=O)NCC(=O)N3CC(F)(F)C[C@H]3C#N)c2c1` [Example 6, N-(2-((S)-2-cyano-4,4-difluoropyrrolidin-1-yl)-2-oxoethyl)-6-(methyl(1-((2S,3S)-1-methyl-5-oxo-2-(pyridin-3-yl)pyrrolidin-3-yl)-1,65-dioxo-5,8,11,14,17,20,23,26,29,32,35,38,41,44,47,50,53,56,59,62-icosaoxa-2,66-diazaoctahexacontan-68-yl)amino)quinoline-4-carboxamide], for which the EC50 is 12.6 nM.
Turning to `CN(CCNC(=O)CCOCCOCCOCCOCCOCCOCCOCCOCCOCCOCCOCCOCCOCCOCCOCCOCCOCCOCCOCCOCCOCCOCCOCCOCCNC(=O)[C@H]1CC(=O)N(C)[C@@H]1c1cccnc1)c1ccc2nccc(C(=O)NCC(=O)N3CC(F)(F)C[C@H]3C#N)c2c1` [Example 7, N-(2-((S)-2-Cyano-4,4-difluoropyrrolidin-1-yl)-2-oxoethyl)-6-(methyl(1-((2S,3S)-1-methyl-5-oxo-2-(pyridin-3-yl)pyrrolidin-3-yl)-1,77-dioxo-5,8,11,14,17,20,23,26,29,32,35,38,41,44,47,50,53,56,59,62,65,68,71,74-tetracosaoxa-2,78-diazaoctacontan-80-yl)amino)quinoline-4-carboxamide], the EC50 was 5.01 nM.
Same read-out and setting: next, `CN1C(=O)C[C@H](C(=O)NCCOCCOCCOCCOCCOCCOCCOCCOCCOCCOCCOCCOCCOCCOCCOCCNC(=O)COc2ccc3nccc(C(=O)NCC(=O)N4CCC[C@@H]4C#N)c3c2)[C@H]1c1cccnc1` [Example 8, N-(2-((R)-2-cyanopyrrolidin-1-yl)-2-oxoethyl)-6-((1-((2S,3S)-1-methyl-5-oxo-2-(pyridin-3-yl)pyrrolidin-3-yl)-1,51-dioxo-5,8,11,14,17,20,23,26,29,32,35,38,41,44,47-pentadecaoxa-2,50-diazadopentacontan-52-yl)oxy)quinoline-4-carboxamide]: 3.98 nM; `CN1C(=O)C[C@H](C(=O)NCCOCCOCCOCCOCCOCCOCCOCCOCCOCCOCCOCCOCCOCCOCCOCCOc2ccc3c(C(=O)NCC(=O)N4CCC[C@H]4C#N)ccnc3c2)[C@H]1c1cccnc1` [Example 9, N-(2-((S)-2-cyanopyrrolidin-1-yl)-2-oxoethyl)-7-((1-((2S,3S)-1-methyl-5-oxo-2-(pyridin-3-yl)pyrrolidin-3-yl)-1-oxo-5,8,11,14,17,20,23,26,29,32,35,38,41,44,47-pentadecaoxa-2-azanonatetracontan-49-yl)oxy)quinoline-4-carboxamide]: more than 1000 nM; `CN1C(=O)C[C@H](C(=O)NCCOCCOCCOCCOCCOCCOCCOCCOCCOCCOCCOCCOCCOCCOCCOCCNC(=O)COc2ccc3c(C(=O)NCC(=O)N4CCC[C@H]4C#N)ccnc3c2)[C@H]1c1cccnc1` [Example 10, N-(2-((S)-2-cyanopyrrolidin-1-yl)-2-oxoethyl)-7-((1-((2S,3S)-1-methyl-5-oxo-2-(pyridin-3-yl)pyrrolidin-3-yl)-1,51-dioxo-5,8,11,14,17,20,23,26,29,32,35,38,41,44,47-pentadecaoxa-2,50-diazadopentacontan-52-yl)oxy)quinoline-4-carboxamide]: more than 1000 nM.
